This experiment deals with C-Raf FL (full length CRAF with Y340E and Y341E activating mutations, co-expressed with h14-3-3 zeta) (Homo sapiens (Human), UniProt P04049, Y340E/Y341E). Nature of the experiment: In vitro Raf activity determination, AlphaScreen p-MEK readout, c-Raf (C-Raf FL). It counts as biochemical. As to conditions: c-Raf approximately 4 nM, ATP 1 μM, pre-incubation 60 minutes, reaction 1 hour. In a few lines: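 Phosphorylation of kinase-dead biotinylated MEK1 (~10 nM) by C-Raf FL (~4 nM) read by AlphaScreen luminescence with anti-phospho-MEK1/2 after EDTA stop. ATP was 1 μM, with a 1 h reaction at room temperature. Compounds were pre-incubated with enzyme and substrate for 60 min in Tris/MgCl2 buffer, pH 7.5.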
Sequence of C-Raf FL (full length CRAF with Y340E and Y341E activating mutations, co-expressed with h14-3-3 zeta) (P04049 whole entry Y340E/Y341E): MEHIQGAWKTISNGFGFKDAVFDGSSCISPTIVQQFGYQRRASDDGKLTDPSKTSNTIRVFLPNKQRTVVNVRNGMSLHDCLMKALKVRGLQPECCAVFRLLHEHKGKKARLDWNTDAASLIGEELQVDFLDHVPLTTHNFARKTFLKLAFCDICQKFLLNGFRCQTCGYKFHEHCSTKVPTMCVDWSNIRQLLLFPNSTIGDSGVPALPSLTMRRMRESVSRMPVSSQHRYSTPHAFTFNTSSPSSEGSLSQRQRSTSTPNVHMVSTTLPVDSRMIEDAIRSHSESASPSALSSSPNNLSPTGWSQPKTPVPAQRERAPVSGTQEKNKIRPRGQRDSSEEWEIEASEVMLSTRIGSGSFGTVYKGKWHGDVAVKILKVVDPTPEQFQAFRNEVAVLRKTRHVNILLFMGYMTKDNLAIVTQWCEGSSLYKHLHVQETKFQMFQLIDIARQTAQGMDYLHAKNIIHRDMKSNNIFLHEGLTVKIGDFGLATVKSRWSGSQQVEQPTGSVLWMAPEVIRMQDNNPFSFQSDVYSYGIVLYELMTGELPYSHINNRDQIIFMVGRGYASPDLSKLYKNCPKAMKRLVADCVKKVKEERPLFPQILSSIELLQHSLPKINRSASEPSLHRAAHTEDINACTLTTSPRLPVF
Sequence of C-Raf FL (full length CRAF with Y340E and Y341E activating mutations, co-expressed with h14-3-3 zeta) (P63104 whole entry partner): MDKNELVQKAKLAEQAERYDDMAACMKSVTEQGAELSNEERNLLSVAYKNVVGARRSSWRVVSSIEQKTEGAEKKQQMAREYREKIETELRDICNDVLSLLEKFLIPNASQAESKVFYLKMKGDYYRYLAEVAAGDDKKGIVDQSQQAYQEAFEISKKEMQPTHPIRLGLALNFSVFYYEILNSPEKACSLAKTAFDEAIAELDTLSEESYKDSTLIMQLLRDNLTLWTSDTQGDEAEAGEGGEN
In general terms: Bead proximity is the source of the signal in Alpha formats.

One may read the IC50 as the point on the concentration scale where inhibition reaches its midpoint. A lower IC50 goes with higher potency.

As for `CCN1C(=O)C[C@H]2COCCN2c2cc(-c3cc(NC(=O)c4ccnc(C(C)(F)F)c4)ccc3C)cnc21` [Example 127, (S)-2-(1,1-difluoroethyl)-N-(3-(7-ethyl-6-oxo-1,2,4a,5,6,7-hexahydro-4H-[1,4]oxazino[4,3-d]pyrido[2,3-b][1,4]diazepin-10-yl)-4-methylphenyl)isonicotinamide], inhibition was half-maximal at 0.048 nM (IC50). That is a picomolar value.

`Cc1ncc(NC(=O)c2ccnc(C(C)(F)F)c2)cc1-c1ccc2c(c1)N1CCOCC[C@@H]1C[C@@H]2O` [Example 97, 2-(1,1-difluoroethyl)-N-(5-((5aR,7S)-7-hydroxy-1,2,5,5a,6,7-hexahydro-4H-[1,4]oxazepino[4,5-a]quinolin-10-yl)-6-methylpyridin-3-yl)isonicotinamide]: it took 0.014 nM to reach half-maximal inhibition (IC50).

`Cc1ncc(NC(=O)c2ccnc(C(C)(F)F)c2)cc1-c1ccc2c(c1)N1CCOCCC1CC2O` (racemic) [Example 96, (rac)-2-(1,1-difluoroethyl)-N-(5-(7-hydroxy-1,2,5,5a,6,7-hexahydro-4H-[1,4]oxazepino[4,5-a]quinolin-10-yl)-6-methylpyridin-3-yl)isonicotinamide] showed an IC50 of 0.053 nM. This IC50 is about 3.8-fold higher than that of the molecule before.

In turn, `Cc1ccc(NC(=O)c2ccnc(C(F)(F)F)c2F)cc1-c1cnc2c(c1)C1CCOCC1OC(=O)N2CCO` (stereo not drawn) [Example 331, 3-fluoro-N-(3-((4,11b-cis)-7-(2-hydroxyethyl)-6-oxo-2,4,4a,6,7,11b-hexahydro-1H-pyrano[4,3-f]pyrido[2,3-d][1,3]oxazepin-10-yl)-4-methylphenyl)-2-(trifluoromethyl) isonicotinamide] had an IC50 of 6.6 nM.

Regarding `Cc1ccc(NC(=O)c2ccnc(C(C)(C)F)c2)cc1-c1cnc2c(c1)N1CCOC[C@H]1C[C@@H]2O` (racemic) [Example 141, rac-cis-2-(2-fluoropropan-2-yl)-N-(3-(6-hydroxy-1,2,4,4a,5,6-hexahydro-[1,4]oxazino[4,3-a][1,5]naphthyridin-9-yl)-4-methylphenyl)isonicotinamide], it took 0.0042 nM to reach half-maximal inhibition (IC50).

Regarding `Cc1ccc(NC(=O)c2cncc(C(F)(F)F)c2)cc1-c1cc(F)c2c(c1)N1CCOC[C@@H]1[C@](F)(CO)C2` [Example 440, N-(3-((4aR,5S)-5,7-difluoro-5-(hydroxymethyl)-1,2,4,4a,5,6-hexahydro-[1,4]oxazino[4,3-a]quinolin-9-yl)-4-methylphenyl)-5-(trifluoromethyl) nicotinamide], the IC50 came out at 0.3 nM.

Turning to `Cc1ccc(NC(=O)c2ccnc(C(F)(F)F)c2F)cc1-c1cnc2c(c1)C1C3COCC3C1C(=O)N2CCO` (stereo not shown) [Example 280, 3-fluoro-N-(3-(5-(2-hydroxyethyl)-6-oxo-5,6,6a,6b,7,9,9a,9b-octahydrofuro[3′,4′: 3,4]cyclobuta[1,2-c][1,8]naphthyridin-2-yl)-4-methylphenyl)-2-(trifluoromethyl) isonicotinamide], the IC50 is 0.5 nM.

Take `Cc1ccc(NC(=O)c2ccnc(C(C)(F)F)c2)cc1-c1cnc2c(c1)N1CCOC[C@@H]1[C@](C#N)(CF)C2` [Example 516, N-(3-((4aS,5R)-5-cyano-5-(fluoromethyl)-1,2,4,4a,5,6-hexahydro-[1,4]oxazino[4,3-a][1,5]naphthyridin-9-yl)-4-methylphenyl)-2-(1,1-difluoroethyl)iso-nicotinamide]: the IC50 amounted to 0.1 nM.

Consider `Cc1ncc(NC(=O)c2ccnc(C(C)(F)F)c2)cc1-c1ccc2c(c1)N1CCOCC1C(F)(CO)C2` (racemic) [Example 79, (rac)-2-(1,1-difluoroethyl)-N-(5-(5-fluoro-5-(hydroxymethyl)-1,2,4,4a,5,6-hexahydro-[1,4]oxazino[4,3-a]quinolin-9-yl)-6-methylpyridin-3-yl)isonicotinamide], for which the 50% inhibitory concentration (IC50) amounted to 0.038 nM.

As for `Cc1ccc(NC(=O)c2ccnc(C(C)(F)F)c2)cc1-c1ccc2c(c1)N1CCOC[C@H]1[C@@](C)(C#N)C2` [Example 373, N-(3-((4aR,5S)-5-cyano-5-methyl-1,2,4,4a,5,6-hexahydro-[1,4]oxazino[4,3-a]quinolin-9-yl)-4-methylphenyl)-2-(1,1-difluoroethyl)isonicotinamide], the IC50 is 0.4 nM.

(Values after patent US10377770B2 (Novartis AG, priority 2015, dated 2019).)
